Tests used:
[1] = molecular target: T1, Human Aryl Hydrocarbon Receptor (AhR) (Homo sapiens, UniProt P35869); experiment: AHR antagonist reporter assay in human cell line (INDIGO AhR Reporter Assay System, kynurenic acid activated); format: cell-based; conditions: 200 μM kynurenic acid, 24 hours, luciferase; read-out: AhR Reporter Assay KA Antagonist Mode: IC50
T1 construct: purchased INDIGO Bioscience #1B06001-32; host or cells: AhR Reporter Cell (kit's proprietary reporter cells)
T1 sequence (P35869 11-848): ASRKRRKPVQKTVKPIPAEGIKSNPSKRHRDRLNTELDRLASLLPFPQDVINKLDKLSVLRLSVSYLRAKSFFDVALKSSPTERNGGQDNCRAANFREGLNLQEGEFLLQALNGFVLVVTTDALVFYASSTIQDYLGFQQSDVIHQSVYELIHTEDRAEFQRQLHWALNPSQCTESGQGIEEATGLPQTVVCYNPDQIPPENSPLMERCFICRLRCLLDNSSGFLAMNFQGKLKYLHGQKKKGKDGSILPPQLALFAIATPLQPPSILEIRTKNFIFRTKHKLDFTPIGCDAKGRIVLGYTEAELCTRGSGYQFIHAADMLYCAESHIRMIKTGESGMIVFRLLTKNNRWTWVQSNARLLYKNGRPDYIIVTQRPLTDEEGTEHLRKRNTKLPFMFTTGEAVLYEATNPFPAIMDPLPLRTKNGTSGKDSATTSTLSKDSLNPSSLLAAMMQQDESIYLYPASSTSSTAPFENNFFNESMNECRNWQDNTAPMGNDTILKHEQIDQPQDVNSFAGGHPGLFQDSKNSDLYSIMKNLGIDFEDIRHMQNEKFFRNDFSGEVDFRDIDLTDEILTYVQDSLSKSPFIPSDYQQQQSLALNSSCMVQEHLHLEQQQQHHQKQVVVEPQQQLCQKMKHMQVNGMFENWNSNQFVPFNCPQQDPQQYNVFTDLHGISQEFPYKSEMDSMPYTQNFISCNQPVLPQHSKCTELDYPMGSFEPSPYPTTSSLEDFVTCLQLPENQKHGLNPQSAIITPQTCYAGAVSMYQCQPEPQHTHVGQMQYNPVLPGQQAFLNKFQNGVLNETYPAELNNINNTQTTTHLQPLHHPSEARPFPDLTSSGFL
Description: The AhR reporter assay was performed following the protocol of the Human Aryl Hydrocarbon Receptor (AhR) Reporter Assay System (INDIGO Bioscience, #1B06001-32). AhR Reporter Cell was thawed and pre-incubated in Cell Recovery Medium (CRM) for 6 hours. The media was then removed and the cells were incubated with Compound Screening Medium (CSM) supplemented with 200 μM kynurenic acid for 24 hours in the absence (negative control) or presence of increasing concentrations of test compounds (typical dilution: […], 3.2 nM, 16 nM, 80 nM, 400 nM, 2 μM, 10 μM in duplicates). For positive inhibition control, cells activated with 200 μM kynurenic acid were incubated in the presence of literature AHR antagonists; alternatively un-activated cells were used as positive inhibition control. Following 24 hours incubation, the media was removed and Luciferase Detection Reagent (LDR) added. The firefly luciferase activity was quantified using a plate reader. Results were normalized by positive and negative controls.

[2] = system: AHR-regulated gene CYP1A1 in human monocytic U937 cell line; experiment: AHR-regulated CYP1A1 expression in U937 cells (qPCR, kynurenic acid stimulated); format: cell-based; conditions: U-937, 200 μM KA, 16 hours, CYP1A1 vs GAPDH, read-out: Cyp ANATAG mode assay: IC50
Description: To evaluate the AHR inhibitory activity of the test compounds, quantitative PCR analysis was used to determine expression level of the AHR-regulated gene CYP1A1 in a human monocytic U937 cell line upon stimulation of 200 μM kynurenic acid (KA) in the absence or presence of AHR inhibitor. U937 cells were seeded at a concentration of 5×10^5 cells/well in 200 μL of growth medium in 96-well cell culture microplates. CYP1A1 expression was induced with 200 μM KA (positive control) in the absence or presence of the test compounds for 16 hours. Human U937 cells were typically incubated with eight different concentrations of test compounds (typical dilution: […], 3.2 nM, 16 nM, 80 nM, 400 nM, 2 μM, 10 μM) and analyzed in duplicate on the same cell culture microplate. After stimulation, the media was removed, the cell RNA was isolated using RNeasy Mini Kit (Qiagen, 74104) and reverse-transcribed to cDNA using PrimeScript RT reagent Kit (Perfect Real Time) (TaKaRa, RR037A). Unstimulated cells were used as the negative control. Taqman probes for human CYP1A1 (Hs01054797_g1) and human GAPDH (Hs02786624_g1) were used to analyze fold expression of CYP1A1 of GAPDH.

| SMILES | IC50 [1] | IC50 [2] |
| --- | --- | --- |
| O=C(N[C@H]1CCCCNC1=O)c1cc(-c2ccc(Cl)cc2)nn(-c2cccc(F)c2)c1=O [28 - *stereo-pure] | < 100 nM | < 100 nM |
| Cn1cc(-n2nc(-c3ccc(Cl)cc3)cc(C(=O)N[C@H]3CCCCNC3=O)c2=O)cn1 [59 - *stereo-pure] | < 100 nM | < 100 nM |
| CNC(=O)C(C)NC(=O)c1cc(-c2ccc(Cl)cc2)nn(-c2cccc(F)c2)c1=O (stereo not drawn) [Compound 12] | 100 to 400 nM | 100 to 400 nM |
| CC(NC(=O)c1cc(-c2ccc(Cl)cc2)nn(-c2cccc(F)c2)c1=O)C(=O)N(C)C (stereo not drawn) [Compound 13] | < 100 nM | 100 to 400 nM |
| COCC(C)NC(=O)c1cc(-c2ccc(Cl)cc2)nn(-c2cnn(C)c2)c1=O (stereo not drawn) [Compound 32] | < 100 nM | < 100 nM |
| COC[C@H](C)NC(=O)c1cc(-c2ccc(Cl)cc2)nn(-c2cn[nH]c2)c1=O [Compound 62] | 100 to 400 nM | < 100 nM |
| COC[C@H](C)NC(=O)c1cc(-c2ccc(C(F)(F)F)cc2)nn(-c2cnn(C)c2)c1=O [Compound 70] | < 100 nM | < 100 nM |
| COC[C@H](C)NC(=O)c1cc(-c2ccc(C(=O)N(C)C)cc2)nn(-c2cnn(C)c2)c1=O [Compound 90] | < 100 nM | < 100 nM |
| CN(C)C(=O)C(C)(C)NC(=O)c1cc(-c2ccc(Cl)cc2)nn(-c2cnn(C)c2)c1=O [Compound 94] | < 100 nM | < 100 nM |
| CNC(=O)C(C)(C)NC(=O)c1cc(-c2ccc(Cl)cc2)nn(-c2cnn(C)c2)c1=O [Compound 95] | < 100 nM | < 100 nM |
| COC[C@H](C)NC(=O)c1cc(-c2ccc(Cl)cc2)nn(-c2cccc(F)c2)c1=O [Compound 97] | < 100 nM | < 100 nM |
| CNC(=O)[C@H](C)NC(=O)c1cc(-c2ccc(Cl)cc2)nn(-c2cccc(F)c2)c1=O [Compound 98] | < 100 nM | < 100 nM |
| C[C@H](NC(=O)c1cc(-c2ccc(Cl)cc2)nn(-c2cccc(F)c2)c1=O)C(=O)N(C)C [Compound 99] | < 100 nM | < 100 nM |
| CNC(=O)[C@H](C)NC(=O)c1cc(-c2ccc(Cl)cc2)nn(-c2cnn(C)c2)c1=O [Compound 100] | < 100 nM | < 100 nM |
| COC[C@H](C)NC(=O)c1cc(-c2ccc3c(c2)OCC3)nn(-c2cnn(C)c2)c1=O [Compound 112] | < 100 nM | 100 to 400 nM |
| COC[C@H](C)NC(=O)c1cc(-c2ccc3cc(OC)ccc3c2)nn(-c2cnn(C)c2)c1=O [Compound 113] | < 100 nM | < 100 nM |
| COC[C@H](C)NC(=O)c1cc(-c2ccc3cc(F)ccc3c2)nn(-c2cnn(C)c2)c1=O [Compound 120] | < 100 nM | < 100 nM |
| COC[C@H](C)NC(=O)c1cc(-c2ccc3c(C)nn(C)c3c2)nn(-c2cnn(C)c2)c1=O [Compound 123] | < 100 nM | < 100 nM |
| COC[C@H](C)NC(=O)c1cc(-c2cnc(-c3ccc(Cl)cc3)nc2)nn(-c2cnn(C)c2)c1=O [Compound 139] | < 100 nM | < 100 nM |
| C[C@H](NC(=O)c1cc(-c2ccc(OC(F)(F)F)cc2)nn(-c2cnn(C)c2)c1=O)C(=O)N(C)C [Compound 146] | < 100 nM | < 100 nM |
| C[C@H](NC(=O)c1cc(-c2ccc(-c3ccc(Cl)cc3)cc2)nn(-c2cnn(C)c2)c1=O)C(=O)N(C)C [Compound 147] | < 100 nM | < 100 nM |
| C[C@@H](CO)NC(=O)c1cc(-c2ccc(-c3ccc(Cl)cc3)cc2)nn(-c2cnn(C)c2)c1=O [Compound 148] | < 100 nM | < 100 nM |

| SMILES | IC50 [1] | IC50 [2] |
| --- | --- | --- |
| C[C@H](NC(=O)c1cc(-c2ccc(C(F)(F)F)cc2)nn(-c2cnn(C)c2)c1=O)C(=O)N(C)C [Compound 150] | < 100 nM | < 100 nM |
| COC[C@H](C)NC(=O)c1cc(-c2cc3ccccc3cn2)nn(-c2cnn(C)c2)c1=O [Compound 153] | < 100 nM | < 100 nM |
| COC[C@H](C)NC(=O)c1cc(-n2cc(-c3ccc(Cl)cc3)cn2)nn(-c2cnn(C)c2)c1=O [Compound 155] | < 100 nM | 100 to 400 nM |
| COC[C@H](C)NC(=O)c1cc(-c2ccc(-c3ccc(Cl)cc3)nc2)nn(-c2cnn(C)c2)c1=O [Compound 156] | < 100 nM | < 100 nM |
| C[C@@H](CO)NC(=O)c1cc(-c2ccc(-c3ccc(Cl)cc3)nc2)nn(-c2cnn(C)c2)c1=O [Compound 157] | < 100 nM | < 100 nM |
| C[C@@H](CO)NC(=O)c1cc(-n2cc(-c3ccc(Cl)cc3)cn2)nn(-c2cnn(C)c2)c1=O [Compound 161] | < 100 nM | < 100 nM |
| C[C@@H](CO)NC(=O)c1cc(-c2cnc(-c3ccc(Cl)cc3)nc2)nn(-c2cnn(C)c2)c1=O [Compound 163] | < 100 nM | < 100 nM |
| CN1CCCC[C@H](NC(=O)c2cc(-c3ccc(C(F)(F)F)cc3)nn(-c3cnn(C)c3)c2=O)C1=O [Compound 164] | < 100 nM | < 100 nM |
| CN1CCCC[C@H](NC(=O)c2cc(-c3ccc(OC(F)(F)F)cc3)nn(-c3cnn(C)c3)c2=O)C1=O [Compound 165] | < 100 nM | < 100 nM |
| CN(C)C(=O)C(C)(C)NC(=O)c1cc(-c2ccc(C(F)(F)F)cc2)nn(-c2cnn(C)c2)c1=O [Compound 167] | < 100 nM | < 100 nM |
| CN(C)C(=O)C(C)(C)NC(=O)c1cc(-c2ccc(OC(F)(F)F)cc2)nn(-c2cnn(C)c2)c1=O [Compound 168] | < 100 nM | 100 to 400 nM |
| CNC(=O)[C@H](C)NC(=O)c1cc(-c2ccc(C(F)(F)F)cc2)nn(-c2cnn(C)c2)c1=O [Compound 169] | < 100 nM | < 100 nM |
| C[C@@H](CO)NC(=O)c1cc(-c2ccc(C(=O)N(C)C)cc2)nn(-c2cccc(F)c2)c1=O [Compound 179] | > 400 nM |  |
| CNC(=O)[C@H](C)NC(=O)c1cc(-c2ccc(C(=O)N(C)C)cc2)nn(-c2cccc(F)c2)c1=O [Compound 180] | < 100 nM |  |
| C[C@H](NC(=O)c1cc(-c2cnc(-c3ccc(Cl)cc3)nc2)nn(-c2cnn(C)c2)c1=O)C(=O)N(C)C [Compound 182] | < 100 nM |  |
| C[C@@H](CO)NC(=O)c1cc(-c2cnc(-c3ccccc3)nc2)nn(-c2cnn(C)c2)c1=O [Compound 187] | < 100 nM |  |
| C[C@H](NC(=O)c1cc(-n2ncc(-c3ccc(Cl)cc3)n2)nn(-c2cnn(C)c2)c1=O)C(=O)N(C)C [Compound 188] | > 400 nM |  |
| C[C@H](NC(=O)c1cc(-n2cc(-c3ccc(Cl)cc3)nn2)nn(-c2cnn(C)c2)c1=O)C(=O)N(C)C [Compound 189] | > 400 nM |  |
| CNC(=O)[C@H](C)NC(=O)c1cc(-n2ncc(-c3ccc(Cl)cc3)n2)nn(-c2cnn(C)c2)c1=O [Compound 190] | > 400 nM |  |
| C[C@@H](CO)NC(=O)c1cc(-c2ccc(-c3ccc4ncccc4c3)nc2)nn(-c2cnn(C)c2)c1=O [Compound 196] | > 400 nM |  |
| C[C@@H](CO)NC(=O)c1cc(N2CCN(c3ccccc3F)CC2)nn(-c2cnn(C)c2)c1=O [Compound 209] | < 100 nM |  |
| C[C@@H](CO)NC(=O)c1cc(N2CCN(c3cccc(F)c3)CC2)nn(-c2cnn(C)c2)c1=O [Compound 210] | < 100 nM |  |
